According to patent EP4800012A1, “COMPOUND ACTING AS PARP7 INHIBITOR” (Dovetree Medicines Unus, Inc., priority 2023, dated 2025):

Key:
PARP7 [1] = target: T1, PARP7 (Homo sapiens, UniProt Q7Z3E1); assay: Inhibition of the compound on PARP7 protein activity (ADP-ribosylation, chemiluminescence); type: biochemical
T1 construct: purchased BPS 80527
T1 sequence (Q7Z3E1 1-657): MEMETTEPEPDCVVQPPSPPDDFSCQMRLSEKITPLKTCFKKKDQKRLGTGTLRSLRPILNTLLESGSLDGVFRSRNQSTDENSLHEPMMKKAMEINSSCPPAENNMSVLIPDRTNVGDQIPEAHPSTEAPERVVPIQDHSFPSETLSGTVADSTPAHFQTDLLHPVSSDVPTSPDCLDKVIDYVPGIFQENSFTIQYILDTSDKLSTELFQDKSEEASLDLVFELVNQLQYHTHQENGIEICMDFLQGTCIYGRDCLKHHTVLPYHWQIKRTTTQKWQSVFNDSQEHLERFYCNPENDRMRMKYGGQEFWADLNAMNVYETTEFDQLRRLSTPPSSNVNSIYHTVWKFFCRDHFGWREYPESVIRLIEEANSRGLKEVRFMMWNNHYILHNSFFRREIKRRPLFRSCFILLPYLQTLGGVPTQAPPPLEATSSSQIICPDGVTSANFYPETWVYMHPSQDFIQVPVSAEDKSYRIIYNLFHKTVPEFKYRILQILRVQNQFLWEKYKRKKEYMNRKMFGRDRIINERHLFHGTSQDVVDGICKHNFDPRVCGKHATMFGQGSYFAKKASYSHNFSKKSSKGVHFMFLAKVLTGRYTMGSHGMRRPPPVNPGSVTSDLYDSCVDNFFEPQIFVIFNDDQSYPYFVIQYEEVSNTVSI

PARP7 [2] = target: T1, PARP7; assay: PARP7 TR-FRET binding inhibition (displacement of probe RBN011147)
Procedure: The ability of the compound to substitute the probe RBN011147 (Wigle et al., 2020, Cell Chemical Biology 27, 877-887) was tested by a TR-FRET method, and IC50 was calculated to evaluate the binding ability of the compound to PARP7. […]

NCI-H1373 cells = assay: Inhibition on NCI-H1373 cell proliferation (Cell-Titer-Glo); type: cell-based; conditions: Homo sapiens, 144 h; NCI-H1373 cells, incubation for 6 days, Cell-Titer-Glo; read-out: NCI-H1373 cell proliferation inhibition IC50
Procedure: The inhibitory effect of the compound on PARP7 was evaluated by testing the inhibitory effect of the compound on NCI-H1373 cell proliferation.
NCI-H1373 cells (ATCC, CRL-5866) were cultured in a complete medium, namely, a RPMI-1640 medium (Gibco, 22400089) containing 10% fetal bovine serum (Corning, 35-081-CV).
Negative control wells and positive control wells were added with 50 nL DMSO (Sigma, D2650), respectively.
In "Day 0" detection plate, NCI-H1373 cells were seeded at a density of 600 cells/well (50 µL) in a complete medium into the Day 0 test wells of a 384-well detection plate (Grenier, 781091). Then, 25 µL of Cell-Titer-Glo reagent (Promega, G7573) was added to each well, followed by centrifugation at 1000 rpm at room temperature for 1 minute and incubation at room temperature under shaded conditions for 10 min. Chemiluminescence signals were collected using an Envision (Perkin Elmer, EnVision 2105) to obtain the average value of the Day 0 test values.
In "compound detection plate", NCI-H1373 cells were seeded at a density of 600 cells/well (50 µL) in a complete medium into the negative control wells and the compound detection wells of a 384-well detection plate (Grenier, 781091), and 50 µL of cell culture medium was added to the positive control wells, followed by centrifugation at 1000 rpm at room temperature for 1 minute and placing in a cell incubator at 37°C, 5% CO2 for incubation for 6 days. […] Chemiluminescence signals were collected using an Envision (Perkin Elmer, EnVision 2105). The test values for each compound well, negative control well, and positive control well were obtained.
The proliferation inhibition ratio formula is as follows: [formula]
The average value of the negative control = the average value of the Day 6 test values of each negative control well minus the average value of the Day 0 test values
The average value of the positive control = the average value of the Day 6 test values of each positive control well
The average value of the compound test = (the Day 6 test value of compound test well 1 + the Day 6 test value of compound test well 2)/2 - the average value of the Day 0 test values

[3] = Histone H1 coated plate, Biotin-Labeled NAD+, 2 h at room temperature, chemiluminescence; read-out: PARP7 activity inhibition IC50
[4] = TR-FRET, Biotin-labeled probe RBN011147; read-out: PARP7 binding inhibition IC50

Row | Structure (SMILES) | IC50 (PARP7 [1]; [3]) | IC50 (PARP7 [2]; [4]) | IC50 (NCI-H1373 cells) | IC50 (PARP7 [1]; read-out: PARP7 activity inhibition IC50; Histone H1 coated plate, Biotin-Labeled NAD+, 2 h at room temperature, chemiluminescence) | IC50 (PARP7 [2]; read-out: PARP7 binding inhibition IC50; TR-FRET, Biotin-labeled probe RBN011147)
1 | CC(CCCN1C(=O)c2ccc(-c3ncc(C(F)(F)F)cn3)cc2C1=O)Nc1cn[nH]c(=O)c1C(F)(F)F (stereo not drawn) [Example 9] | < 3 nM | < 10 nM | > 3000 nM |  | 
2 | O=C(NCCCC(Nc1cn[nH]c(=O)c1C(F)(F)F)C1CC1)c1cnc(-c2ncc(C(F)(F)F)s2)cn1 (stereo not drawn) [Example 54] | 3 to 10 nM | 10 to 30 nM | > 3000 nM |  | 
3 | CC(CCCNC(=O)c1ccc(-c2csc(C(F)(F)F)n2)nc1)Nc1cn[nH]c(=O)c1C(F)(F)F (stereo not drawn) [Example 177] | < 3 nM | < 10 nM | 1000 to 3000 nM |  | 
4 | CC(CCCNC(=O)c1ccc(-n2cccn2)nc1)Nc1cn[nH]c(=O)c1C(F)(F)F (stereo not drawn) [Example 45] | 3 to 10 nM | 10 to 30 nM | > 3000 nM |  | 
5 | Cc1c(CCC(=O)Nc2ncc(-c3ncc(C(F)(F)F)cn3)cc2F)c[nH]c(=O)c1C(F)(F)F [Example 76] | 3 to 10 nM | 10 to 30 nM | > 3000 nM |  | 
6 | CC(CCCNC(=O)c1ccc(-c2nn(C)cc2F)cc1)Nc1cn[nH]c(=O)c1C(F)(F)F (stereo not drawn) [Example 192] | 3 to 10 nM | 30 to 100 nM | > 3000 nM |  | 
7 | CC(CCCNC(=O)c1ccc(-c2ncc(C3CC3)s2)cc1)Nc1cn[nH]c(=O)c1C(F)(F)F (stereo not drawn) [Example 19] | < 3 nM | < 10 nM | 300 to 1000 nM |  | 
8 | CC(CCCNC(=O)c1ccc(-c2ncn(C)n2)cc1)Nc1cn[nH]c(=O)c1C(F)(F)F (stereo not drawn) [Example 47] | 3 to 10 nM | 10 to 30 nM | > 3000 nM |  | 
9 | Cc1cc(NC(C)CCCN(C)C(=O)c2cnc(-c3ncc(C(F)(F)F)cn3)cn2)c(C#N)c(=O)[nH]1 (stereo not drawn) [Example 34] | 30 to 100 nM | > 100 nM | > 3000 nM |  | 
10 | C[C@@H](CCCNC(=O)c1ccc(-c2nccs2)cn1)Nc1cn[nH]c(=O)c1C(F)(F)F [Example 46] |  |  | > 3000 nM | 10 to 30 nM | 10 to 30 nM
11 | CC(CCCNC(=O)c1ccc(-c2cc(-c3cccnc3)sn2)cc1)Nc1cn[nH]c(=O)c1C(F)(F)F (stereo not drawn) [Example 18] | < 3 nM | < 10 nM | 300 to 1000 nM |  | 
12 | CC(CCCNC(=O)c1ccc(-n2cc(C(F)(F)F)cn2)nc1)Nc1cn[nH]c(=O)c1C(F)(F)F (stereo not drawn) [Example 206] | < 3 nM | < 10 nM | 1000 to 3000 nM |  | 
13 | CC(CCCNC(=O)c1ccc(-c2ncc(C(F)(F)F)s2)cn1)Nc1cn[nH]c(=O)c1C(F)(F)F (stereo not drawn) [Example 209] | < 3 nM | 10 to 30 nM | < 300 nM |  | 
14 | CC(CCCN(C)C(=O)c1cnc(-c2ncc(C(F)(F)F)cn2)cn1)Nc1cn[nH]c(=O)c1C(F)(F)F (stereo not drawn) [Example 50] | < 3 nM | 10 to 30 nM | > 3000 nM |  | 
15 | Cc1c(CCC(=O)Nc2ccc(-c3ncc(C(F)(F)F)cn3)cc2F)c[nH]c(=O)c1C(F)(F)F [Example 53] | 10 to 30 nM | 30 to 100 nM | > 3000 nM |  | 
16 | CC(CCCNC(=O)c1ccc(-c2ncc(N3CCCCC3)s2)cc1)Nc1cn[nH]c(=O)c1C(F)(F)F (stereo not drawn) [Example 58] | 3 to 10 nM | < 10 nM | > 3000 nM |  | 
17 | Cc1cc(-c2ccc(C(=O)NCCCC(C)Nc3cn[nH]c(=O)c3C(F)(F)F)cc2)ncc1C#N (stereo not drawn) [Example 68] | < 3 nM | < 10 nM | 300 to 1000 nM |  | 
18 | CC(CCCNC(=O)c1ncc(-n2cc(C(F)(F)F)cn2)cc1F)Nc1cn[nH]c(=O)c1C(F)(F)F (stereo not drawn) [Example 183] | < 3 nM | < 10 nM | 300 to 1000 nM |  | 
19 | Cc1nc(-c2ccc(C(=O)NCCCC(C)Nc3cn[nH]c(=O)c3C(F)(F)F)cc2)sc1C (stereo not drawn) [Example 189] | < 3 nM | 30 to 100 nM | 1000 to 3000 nM |  | 
20 | CC(CCCNC(=O)c1cnc(-c2cscn2)c(F)c1)Nc1cn[nH]c(=O)c1C(F)(F)F (stereo not drawn) [Example 178] | < 3 nM | 10 to 30 nM | > 3000 nM |  | 
21 | CC(CCCNC(=O)c1ncc(-c2ncc(N3CC(F)C3)cn2)cc1F)Nc1cn[nH]c(=O)c1C(F)(F)F (stereo not drawn) [Example 72] | < 3 nM | < 10 nM | 300 to 1000 nM |  | 
22 | Cc1cc(=O)n(C)nc1-c1ccc(C(=O)NCCCC(C)Nc2cn[nH]c(=O)c2C(F)(F)F)cc1 (stereo not drawn) [Example 66] | 30 to 100 nM | > 100 nM | > 3000 nM |  | 
23 | CC(CCCNC(=O)c1cnc(-c2cc(C(F)(F)F)sn2)c(F)c1)Nc1cn[nH]c(=O)c1C(F)(F)F (stereo not drawn) [Example 205] | < 3 nM | < 10 nM | 300 to 1000 nM |  | 
24 | CC(CCCNC(=O)c1ccc(-c2ncc(CC3CC3)s2)cc1)Nc1cn[nH]c(=O)c1C(F)(F)F (stereo not drawn) [Example 44] | < 3 nM | < 10 nM | 1000 to 3000 nM |  | 
25 | O=C(NCCCC(Nc1cn[nH]c(=O)c1C(F)(F)F)C1CC1)c1ccc(-c2ncc(C(F)(F)F)s2)cc1 (stereo not drawn) [Example 55] | < 3 nM | < 10 nM | 1000 to 3000 nM |  | 
26 | CC(CCCNC(=O)c1cnc(-c2ncc(C(F)(F)F)cn2)cn1)Nc1cc[nH]c(=O)c1C#N (stereo not drawn) [Example 52] | 10 to 30 nM | 30 to 100 nM | > 3000 nM |  | 
27 | COc1cnc(-c2ccc(C(=O)NCCCC(C)Nc3cc[nH]c(=O)c3C(F)(F)F)c(F)c2)s1 (stereo not drawn) [Example 27] | < 3 nM | 10 to 30 nM | > 3000 nM |  | 
28 | CC(CCCNC(=O)c1ccc(-c2nnc(C(F)(F)F)s2)cc1)Nc1cn[nH]c(=O)c1C(F)(F)F (stereo not drawn) [Example 82] | 3 to 10 nM | 30 to 100 nM | > 3000 nM |  | 
29 | CC(CCCNC(=O)c1ccc(-c2ncc(C(F)F)s2)cn1)Nc1cn[nH]c(=O)c1C(F)(F)F (stereo not drawn) [Example 23] | < 3 nM | 10 to 30 nM | 300 to 1000 nM |  | 
30 | CC(CCCNC(=O)c1ccc(-c2cc(C(F)(F)F)nn2C)cc1)Nc1cn[nH]c(=O)c1C(F)(F)F (stereo not drawn) [Example 245] | 10 to 30 nM | > 100 nM | > 3000 nM |  | 
